Data from the Kinase Knowledgebase extract (Sharma et al. 2016).

Experiments:
[1] = molecular target: EGFR (Human), P00533 [Assessment of EGFR-Del T790M Dependent Cell Proliferation in BaF3 Cells]
[2] = molecular target: EGFR (Human), P00533 [T790M/L858R]; conditions: baf3
[3] = molecular target: EGFR (human), P00533 [L858R]
EGFR (human) = EGFR (human) (UniProt P00533)
[4] = molecular target: EGFR (Human), P00533 [T790M/L858R]

EGFR (human), P00533 [L858R], sequence (P00533 whole entry L858R, looked up): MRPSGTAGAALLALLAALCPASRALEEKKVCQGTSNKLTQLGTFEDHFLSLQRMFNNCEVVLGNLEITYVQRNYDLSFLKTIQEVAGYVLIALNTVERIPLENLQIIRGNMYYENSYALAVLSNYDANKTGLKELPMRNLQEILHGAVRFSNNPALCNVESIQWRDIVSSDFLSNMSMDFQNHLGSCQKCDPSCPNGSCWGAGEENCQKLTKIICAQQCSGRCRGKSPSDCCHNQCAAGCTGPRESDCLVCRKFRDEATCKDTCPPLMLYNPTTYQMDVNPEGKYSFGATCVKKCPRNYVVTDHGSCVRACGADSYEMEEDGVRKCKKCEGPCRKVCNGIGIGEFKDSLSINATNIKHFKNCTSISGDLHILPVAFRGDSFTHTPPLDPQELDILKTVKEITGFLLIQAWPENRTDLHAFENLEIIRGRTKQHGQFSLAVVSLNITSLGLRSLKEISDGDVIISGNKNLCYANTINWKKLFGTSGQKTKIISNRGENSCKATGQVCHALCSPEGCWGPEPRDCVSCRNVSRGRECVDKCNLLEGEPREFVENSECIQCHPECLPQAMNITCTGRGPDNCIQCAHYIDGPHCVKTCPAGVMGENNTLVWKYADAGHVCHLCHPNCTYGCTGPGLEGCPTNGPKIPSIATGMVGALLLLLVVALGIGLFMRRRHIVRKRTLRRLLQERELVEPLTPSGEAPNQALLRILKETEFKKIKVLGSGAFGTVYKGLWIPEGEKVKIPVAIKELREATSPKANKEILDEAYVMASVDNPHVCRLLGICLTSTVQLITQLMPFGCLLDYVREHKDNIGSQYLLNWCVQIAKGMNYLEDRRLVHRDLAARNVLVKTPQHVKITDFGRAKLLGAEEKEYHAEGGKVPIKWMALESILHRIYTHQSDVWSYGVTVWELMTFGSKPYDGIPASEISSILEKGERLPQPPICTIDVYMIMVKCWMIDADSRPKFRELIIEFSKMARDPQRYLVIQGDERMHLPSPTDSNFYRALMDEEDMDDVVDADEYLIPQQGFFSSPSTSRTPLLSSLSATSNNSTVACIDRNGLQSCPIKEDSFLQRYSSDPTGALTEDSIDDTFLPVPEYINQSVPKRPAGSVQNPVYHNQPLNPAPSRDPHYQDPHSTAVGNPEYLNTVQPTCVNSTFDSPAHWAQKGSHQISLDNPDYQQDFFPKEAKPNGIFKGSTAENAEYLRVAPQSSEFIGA
EGFR (Human), P00533 [Assessment of EGFR-Del T790M Dependent Cell Proliferation in BaF3 Cells], sequence (P00533 whole entry, looked up, stated change not applied): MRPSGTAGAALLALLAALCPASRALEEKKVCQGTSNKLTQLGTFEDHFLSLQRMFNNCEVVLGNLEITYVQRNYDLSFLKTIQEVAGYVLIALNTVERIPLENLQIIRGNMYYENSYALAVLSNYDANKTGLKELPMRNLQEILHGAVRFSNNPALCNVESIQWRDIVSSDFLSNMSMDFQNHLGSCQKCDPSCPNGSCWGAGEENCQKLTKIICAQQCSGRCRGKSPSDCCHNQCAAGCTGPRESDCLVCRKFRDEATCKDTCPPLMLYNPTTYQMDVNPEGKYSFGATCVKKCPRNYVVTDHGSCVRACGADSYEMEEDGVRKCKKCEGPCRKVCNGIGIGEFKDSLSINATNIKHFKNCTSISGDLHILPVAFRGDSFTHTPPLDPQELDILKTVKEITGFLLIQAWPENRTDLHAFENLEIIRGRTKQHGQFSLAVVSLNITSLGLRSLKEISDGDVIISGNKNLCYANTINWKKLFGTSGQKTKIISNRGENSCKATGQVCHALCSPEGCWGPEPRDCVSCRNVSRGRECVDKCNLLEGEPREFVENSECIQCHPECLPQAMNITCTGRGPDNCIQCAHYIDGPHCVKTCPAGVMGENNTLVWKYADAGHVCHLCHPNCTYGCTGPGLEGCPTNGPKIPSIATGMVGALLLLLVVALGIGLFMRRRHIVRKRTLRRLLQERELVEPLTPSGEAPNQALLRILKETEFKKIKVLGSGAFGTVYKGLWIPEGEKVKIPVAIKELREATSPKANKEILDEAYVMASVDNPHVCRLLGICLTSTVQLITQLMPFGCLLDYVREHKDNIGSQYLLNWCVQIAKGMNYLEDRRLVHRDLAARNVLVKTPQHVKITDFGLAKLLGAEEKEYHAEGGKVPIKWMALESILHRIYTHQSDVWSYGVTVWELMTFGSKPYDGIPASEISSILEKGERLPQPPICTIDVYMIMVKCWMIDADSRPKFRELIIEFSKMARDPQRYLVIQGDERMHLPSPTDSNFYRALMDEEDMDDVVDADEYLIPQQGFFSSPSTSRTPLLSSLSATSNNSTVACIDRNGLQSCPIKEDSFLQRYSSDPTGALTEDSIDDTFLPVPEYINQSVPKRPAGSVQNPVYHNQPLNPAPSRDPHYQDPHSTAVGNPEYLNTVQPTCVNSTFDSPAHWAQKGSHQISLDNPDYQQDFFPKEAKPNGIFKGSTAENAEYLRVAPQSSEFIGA
EGFR (human), sequence (P00533 whole entry, looked up): as the sequence (P00533 whole entry, looked up, stated change not applied) above
EGFR (Human), P00533 [T790M/L858R], sequence (P00533 whole entry T790M/L858R, looked up): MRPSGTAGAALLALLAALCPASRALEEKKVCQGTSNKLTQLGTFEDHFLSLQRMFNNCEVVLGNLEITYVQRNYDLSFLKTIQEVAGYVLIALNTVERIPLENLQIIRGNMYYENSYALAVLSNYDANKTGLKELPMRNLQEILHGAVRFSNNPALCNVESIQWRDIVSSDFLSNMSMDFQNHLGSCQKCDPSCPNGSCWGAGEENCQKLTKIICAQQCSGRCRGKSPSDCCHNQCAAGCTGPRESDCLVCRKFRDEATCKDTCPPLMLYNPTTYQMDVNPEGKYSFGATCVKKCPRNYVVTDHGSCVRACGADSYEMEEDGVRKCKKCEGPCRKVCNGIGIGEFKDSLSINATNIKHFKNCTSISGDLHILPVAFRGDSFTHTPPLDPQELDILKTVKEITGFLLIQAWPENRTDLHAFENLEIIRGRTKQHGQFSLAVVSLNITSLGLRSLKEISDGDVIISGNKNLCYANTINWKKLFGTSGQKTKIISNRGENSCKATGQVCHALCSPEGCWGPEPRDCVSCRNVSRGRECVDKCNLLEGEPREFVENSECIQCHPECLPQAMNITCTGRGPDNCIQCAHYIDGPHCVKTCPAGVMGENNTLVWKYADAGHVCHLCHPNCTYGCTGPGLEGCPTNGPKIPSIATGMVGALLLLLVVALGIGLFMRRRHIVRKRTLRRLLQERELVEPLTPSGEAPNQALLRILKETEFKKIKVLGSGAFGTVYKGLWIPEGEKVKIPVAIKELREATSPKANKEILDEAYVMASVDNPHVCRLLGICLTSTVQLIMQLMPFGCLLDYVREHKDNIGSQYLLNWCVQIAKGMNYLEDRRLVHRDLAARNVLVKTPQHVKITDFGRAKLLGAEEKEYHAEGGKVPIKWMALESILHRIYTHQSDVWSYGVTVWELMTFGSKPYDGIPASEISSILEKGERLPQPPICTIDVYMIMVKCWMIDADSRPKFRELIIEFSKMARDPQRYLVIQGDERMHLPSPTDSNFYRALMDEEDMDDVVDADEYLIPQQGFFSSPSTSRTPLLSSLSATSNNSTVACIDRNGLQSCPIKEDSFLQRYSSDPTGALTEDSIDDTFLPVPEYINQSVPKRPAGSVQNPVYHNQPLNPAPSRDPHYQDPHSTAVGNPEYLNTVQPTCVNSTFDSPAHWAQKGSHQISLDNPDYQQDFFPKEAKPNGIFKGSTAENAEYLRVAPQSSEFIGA

| Compound | IC50 [1] | IC50 [2] | IC50 [3] | IC50 (EGFR (human)) | IC50 [4] |
| --- | --- | --- | --- | --- | --- |
| C=CC(=O)Nc1cc(Nc2ncc(Cl)c(Nc3ccccc3P(C)(C)=O)n2)c(OC)cc1N1CCC(N2CCCN(C)CC2)CC1 | 50 to 100 nM | 101 to 250 nM | < 50 nM | < 50 nM | < 50 nM |
| C=CC(=O)Nc1cc(Nc2ncc(Cl)c(Nc3ccccc3P(C)(C)=O)n2)c(OC)cc1OCCN1CCCC1 | < 50 nM | < 50 nM | < 50 nM | < 50 nM | < 50 nM |
| C=CC(=O)Nc1cc(Nc2ncc(Cl)c(Nc3ccccc3P(C)(C)=O)n2)c(Cl)cc1C#CCN(C)C | < 50 nM | < 50 nM | < 50 nM | < 50 nM | < 50 nM |
| C=CC(=O)Nc1cc(Nc2ncc(Cl)c(Nc3ccccc3S(=O)(=O)C(C)C)n2)c(OC)cc1C#CCN(C)C | < 50 nM | < 50 nM | < 50 nM | < 50 nM | < 50 nM |
| C=CC(=O)Nc1cc(Nc2ncc(Cl)c(Nc3ccccc3P(C)(C)=O)n2)c(OC)cc1OC1CCCN(CCOC)C1 (stereo not given) | < 50 nM | < 50 nM | < 50 nM | < 50 nM | < 50 nM |
| C=CC(=O)Nc1cc(Nc2ncc(Cl)c(Nc3ccccc3P(C)(C)=O)n2)c(OC)cc1OCCN1CCCCC1 | < 50 nM | < 50 nM | < 50 nM | < 50 nM | < 50 nM |
| C=CC(=O)Nc1cc(Nc2ncc(Cl)c(Nc3ccccc3P(C)(C)=O)n2)c(OC)cc1N1CC[C@@H](N(C)C)C1 | < 50 nM | < 50 nM | < 50 nM | < 50 nM | < 50 nM |
| C=CC(=O)Nc1cc(Nc2ncc(Cl)c(Nc3ccccc3P(C)(C)=O)n2)c(OC)cc1N1CCC(N2CCCC2)C1 (stereo not given) | < 50 nM | < 50 nM | < 50 nM | < 50 nM | < 50 nM |
| COc1cc(F)c(NC(=O)/C=C/Cl)cc1Nc1ncc(Cl)c(Nc2ccccc2P(C)(C)=O)n1 | < 50 nM | < 50 nM | < 50 nM | < 50 nM | < 50 nM |
| C=CC(=O)Nc1cc(Nc2ncc(Cl)c(Nc3ccccc3P(C)(C)=O)n2)c(OC)cc1N1CCC(N2CCC2)C1 (stereo not given) | < 50 nM | < 50 nM | < 50 nM | < 50 nM | < 50 nM |
| COc1ccc(NC(=O)C#CCN(C)C)cc1Nc1ncc(Cl)c(Nc2ccccc2P(C)(C)=O)n1 | < 50 nM | < 50 nM | < 50 nM | < 50 nM | < 50 nM |
| C=CC(=O)Nc1cc(Nc2ncc(Cl)c(Nc3ccccc3P(C)(C)=O)n2)c(OC)cc1OC(COCC)CN(C)C (stereo not given) | < 50 nM | < 50 nM | < 50 nM | < 50 nM | < 50 nM |
| C=CC(=O)Nc1cc(Nc2ncc(Cl)c(Nc3ccccc3P(C)(C)=O)n2)c(OC)cc1N(C)CCN(C)CCF | < 50 nM | < 50 nM | < 50 nM | < 50 nM | < 50 nM |
| C=CC(=O)Nc1ccc(Cl)c(Nc2ncc(Cl)c(Nc3ccccc3P(C)(C)=O)n2)c1 | < 50 nM | < 50 nM | < 50 nM | < 50 nM | < 50 nM |
| C=CC(=O)Nc1ccc(OC)c(Nc2ncc(Cl)c(Nc3ccc(OCCCN(C)C)cc3P(C)(C)=O)n2)c1 | < 50 nM | < 50 nM | < 50 nM | < 50 nM | < 50 nM |
| COc1ccc(NC(=O)/C=C/Cl)cc1Nc1ncc(Cl)c(Nc2ccccc2P(C)(C)=O)n1 | < 50 nM | < 50 nM | < 50 nM | < 50 nM | < 50 nM |
| COCC#CC(=O)Nc1cc(Nc2ncc(Cl)c(Nc3ccccc3P(C)(C)=O)n2)c(OC)cc1N1CCC(N(C)C)C1 (stereo not given) | < 50 nM | < 50 nM | < 50 nM | < 50 nM | < 50 nM |
| C=CC(=O)Nc1cc(Nc2ncc(Cl)c(Nc3ccccc3P(C)(C)=O)n2)c(OC)cc1N1CC[C@H](N(C)C)C1 | < 50 nM | < 50 nM | < 50 nM | < 50 nM | < 50 nM |
| COc1cc(N2CCCC2)c(NC(=O)C#CCCN2CCN(C)CC2)cc1Nc1ncc(Cl)c(Nc2ccccc2P(C)(C)=O)n1 | 101 to 250 nM | 101 to 250 nM | < 50 nM | < 50 nM | < 50 nM |
| C=CC(=O)Nc1cc(Nc2ncc(Cl)c(Nc3ccccc3P(C)(C)=O)n2)c(OC)cc1OCc1ccncc1 | < 50 nM | 101 to 250 nM | < 50 nM | < 50 nM | < 50 nM |
| C=CC(=O)Nc1cc(Nc2ncc(Cl)c(Nc3ccccc3P(C)(C)=O)n2)c(OC)cc1C#CCNC | < 50 nM | < 50 nM | < 50 nM | < 50 nM | < 50 nM |
| C=CC(=O)Nc1cc(Nc2ncc(Cl)c(Nc3ccccc3P(C)(C)=O)n2)c(OC)cc1N1CC(N2CCCC2)C1 | < 50 nM | < 50 nM | < 50 nM | < 50 nM | < 50 nM |

| Compound | IC50 [1] | IC50 [2] | IC50 [3] | IC50 (EGFR (human)) | IC50 [4] |
| --- | --- | --- | --- | --- | --- |
| C=CC(=O)Nc1cc(Nc2ncc(Cl)c(Nc3ccccc3P(C)(C)=O)n2)c(OC)cc1N1CCC(N2CCCCC2)CC1 | < 50 nM | < 50 nM | < 50 nM | < 50 nM | < 50 nM |
| C=CC(=O)Nc1cc(Nc2ncc(Cl)c(Nc3ccccc3P(C)(C)=O)n2)c(OC)cc1C | < 50 nM | < 50 nM | < 50 nM | < 50 nM | < 50 nM |
| C=CC(=O)Nc1cc(Nc2ncc(Cl)c(Nc3ccccc3P(C)(C)=O)n2)c(C)cc1C#CCN(C)C | < 50 nM | < 50 nM | < 50 nM | < 50 nM | < 50 nM |
| C=CC(=O)Nc1cc(Nc2ncc(Cl)c(Nc3ccccc3P(C)(C)=O)n2)c(OC)cc1C#CCN(C)CCOC | < 50 nM | < 50 nM | < 50 nM | < 50 nM | < 50 nM |
| C=CC(=O)Nc1cc(Nc2ncc(Cl)c(Nc3ccccc3P(C)(C)=O)n2)c(OC)cc1C#CC(C)(C)N1CCCC1 | < 50 nM | < 50 nM | < 50 nM | 50 to 100 nM | < 50 nM |
| C=CC(=O)Nc1cc(Nc2ncc(Cl)c(Nc3ccccc3P(C)(C)=O)n2)c(OC)cc1N1CCCN(C)CC1 | < 50 nM | < 50 nM | < 50 nM | < 50 nM | < 50 nM |
| COc1cc(N2CCOCC2)c(NC(=O)C#CCCN(C)C)cc1Nc1ncc(Cl)c(Nc2ccccc2P(C)(C)=O)n1 | < 50 nM | < 50 nM | < 50 nM | < 50 nM | < 50 nM |
| C=CC(=O)Nc1ccc(OC)c(Nc2ncc(Cl)c(Nc3ccc(OC4CCOC4)cc3P(C)(C)=O)n2)c1 (stereo not given) | < 50 nM | 50 to 100 nM | < 50 nM | < 50 nM | < 50 nM |
| C=C(CN1CCN(C)CC1)C(=O)Nc1ccc(OC)c(Nc2ncc(Cl)c(Nc3ccccc3P(C)(C)=O)n2)c1 | < 50 nM | < 50 nM | < 50 nM | < 50 nM | < 50 nM |
| CC#CC(=O)Nc1cc(Nc2ncc(Cl)c(Nc3ccccc3P(C)(C)=O)n2)c(OC)cc1N1CCC(N(C)C)C1 (stereo not given) | < 50 nM | 50 to 100 nM | < 50 nM | < 50 nM | < 50 nM |
| C=CC(=O)Nc1cc(Nc2ncc(Cl)c(Nc3ccccc3P(C)(C)=O)n2)c(Cl)cc1OC(COC)CN(C)C (stereo not given) | < 50 nM | < 50 nM | < 50 nM | < 50 nM | < 50 nM |
| C=C(CN1CCCCC1)C(=O)Nc1ccc(OC)c(Nc2ncc(Cl)c(Nc3ccccc3P(C)(C)=O)n2)c1 | < 50 nM | < 50 nM | < 50 nM | < 50 nM | < 50 nM |
| C=CC(=O)Nc1cc(Nc2ncc(Cl)c(Nc3ccccc3P(C)(C)=O)n2)c(OC)cc1C#CCN(C(C)C)C(C)C | < 50 nM | < 50 nM | < 50 nM | < 50 nM | < 50 nM |
| COc1cc(F)c(NC(=O)C#CC(C)(C)N2CCCC2)cc1Nc1ncc(Cl)c(Nc2ccccc2P(C)(C)=O)n1 | < 50 nM | < 50 nM | < 50 nM | < 50 nM | < 50 nM |
| C=CC(=O)Nc1cc(Nc2ncc(Cl)c(Nc3ccccc3P(C)(C)=O)n2)c(OC)cc1C#CC(C)(C)N(C)C | < 50 nM | < 50 nM | < 50 nM | < 50 nM | < 50 nM |
| C=CC(=O)Nc1cc(Nc2ncc(Cl)c(Nc3ccccc3P(C)(C)=O)n2)c(OC)cc1OC(COC)CN(C)C (stereo not given) | < 50 nM | < 50 nM | < 50 nM | < 50 nM | < 50 nM |
| C=CC(=O)Nc1cc(Nc2ncc(Cl)c(Nc3ccccc3P(C)(C)=O)n2)c(OC)cc1N1CCC(N(C)C)C1 (stereo not given) | < 50 nM | < 50 nM | < 50 nM | < 50 nM | < 50 nM |
| C=CC(=O)Nc1cc(Nc2ncc(Cl)c(Nc3ccccc3P(C)(C)=O)n2)c(OC)cc1C#CC(C)(C)N | < 50 nM | < 50 nM | < 50 nM | < 50 nM | < 50 nM |
| C=CC(=O)Nc1cc(Nc2ncc(Cl)c(Nc3ccccc3P(C)(C)=O)n2)c(OC)cc1O[C@@H]1CCCN(C)C1 | < 50 nM | < 50 nM | < 50 nM | < 50 nM | < 50 nM |
| C=CC(=O)Nc1ccc(OC)c(Nc2ncc(OC)c(Nc3ccccc3P(C)(C)=O)n2)c1 | < 50 nM | 50 to 100 nM | < 50 nM | 50 to 100 nM | < 50 nM |
| C=C(Cl)C(=O)Nc1ccc(OC)c(Nc2ncc(Cl)c(Nc3ccccc3P(C)(C)=O)n2)c1 | < 50 nM | 101 to 250 nM | < 50 nM | < 50 nM | < 50 nM |
| C=CC(=O)Nc1cc(Nc2ncc(Cl)c(Nc3ccccc3P(C)(C)=O)n2)c(OC)cc1OCC1CCCCN1C (stereo not given) | < 50 nM | < 50 nM | < 50 nM | < 50 nM | < 50 nM |
